Active and inactive are the calls of the source. How the calls were made is not given here.
Molecular target: Regulator of G-protein signaling 19 (Homo sapiens) (UniProt P49795)
Assay: modulators of RGS19-Galphao binding, dose response, biochemical, multiplexed bead flow cytometry (AID 1884)
Conditions: bead-based flow cytometry RGS19-Galphao binding; for Ki: measured here: Ki for RGS19-Galphao

Chain of Regulator of G-protein signaling 19 (Homo sapiens) (P49795 whole entry, looked up): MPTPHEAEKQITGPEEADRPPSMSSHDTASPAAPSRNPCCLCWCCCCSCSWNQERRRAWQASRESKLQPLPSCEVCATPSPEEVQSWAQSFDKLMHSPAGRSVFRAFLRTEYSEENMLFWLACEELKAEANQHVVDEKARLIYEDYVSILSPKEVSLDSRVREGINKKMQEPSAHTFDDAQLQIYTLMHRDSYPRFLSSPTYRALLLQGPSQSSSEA

Structure (SMILES) | Ki [nM] | EC50
O=C(OCC1O[C@@H](OC(=O)c2cc(O)c(O)c(O)c2)[C@@H](OC(=O)c2cc(O)c(O)c(O)c2)[C@@H](OC(=O)c2cc(O)c(O)c(O)c2)[C@@H]1OC(=O)c1cc(O)c(O)c(O)c1)c1cc(O)c(O)c(O)c1 (some centres not stated) | 4120 | 
CCN(CC)S(=O)(=O)c1cccc(C(=O)N/N=C/c2ccc(O)c(O)c2O)c1 | 2030 | 
COc1ccccc1-n1c(-c2cc(-c3ccco3)[nH]n2)n[nH]c1=S | 13200 | 
CC(=O)N(O)CCCCCNC(=O)CCC(=O)N(O)CCCCCNC(=O)CCC(=O)N(O)CCCCCN | 3840 | 
O=C(O)C[C@@H]1C(=O)O[C@@H]2C(COC(=O)c3cc(O)c(O)c(O)c3)O[C@@H](OC(=O)c3cc(O)c(O)c(O)c3)[C@@H](OC(=O)c3cc(O)c(O)c4c3[C@H]1[C@H](O)C(=O)O4)[C@H]2OC(=O)c1cc(O)c(O)c(O)c1 (some centres not stated) | 5370 | 
Cc1cc(Cl)ccc1N=c1ssnc1Cl | 4130 | 
CC(=O)N1CC[n+]2c(-c3ccc([N+](=O)[O-])cc3)csc21 | 7170 | 
Cc1cc(C)c2c(=O)n(CC(=O)Nc3cccc(F)c3)sc2n1 | 1160 | 
CCOC(=O)c1sc(NC(=O)CSc2nnc(Cc3ccccc3)o2)c(C#N)c1C | 1330 | 
COc1ccc(C2=CC(=O)C=CC2=O)cc1 | 1840 | 
COCCCNC(=O)c1ccc2c3c(onc13)-c1ccccc1C2=O | 3630 | 
CCN(CC)S(=O)(=O)c1cccc(-c2n[nH]c(=S)n2/N=C/c2ccc(C(=O)OC)cc2)c1 | 5820 | 
CCOC(=O)C1CCCN(C(=O)Cn2sc3nc(C)cc(C)c3c2=O)C1 (configuration not stated) | 2100 | 
CN(C)c1ncc(C2=C(Cl)C(=O)C(N3CCCC3)=C(Cl)C2=O)s1 | 790 | 
CN(C)[C@@H]1C(=O)C(C(=O)NCN2CCCC2)=C(O)[C@@]2(O)C(=O)C3=C(O)c4c(O)cccc4[C@@](C)(O)C3CC12 (some centres not stated) | 7070 | 7530 nM
O=[N+]([O-])c1ccc(Sc2cccc[n+]2[O-])c2nonc12 | 820 | 
Cc1[nH]n(-c2ccccc2)c(=S)c1C=Nc1cccc([N+](=O)[O-])c1 | 1590 | 
CCOC(=O)N=Nc1c(O)n(C)c2ccccc12 |  | > 30000 nM (inactive)
Cc1[nH]n(-c2ccccc2)c(=S)c1C=NCCCN=Cc1c(C)[nH]n(-c2ccccc2)c1=S | 2630 | 
Cc1ccc(-n2sc3ccccc3c2=O)cc1S(=O)(=O)N1CCCCC1 | 570 | 

Structure (SMILES) | Ki [nM] | EC50
CN1CCN(C2=C(Cl)C(=O)C(c3cnc(N4CCCCC4)s3)=C(Cl)C2=O)CC1 | 10 | 
COc1ccc(Br)cc1/C=N/Nc1cccc(C(=O)O)c1 |  | > 30000 nM (inactive)
COc1ccc(OC)c(CCNC(=O)Cn2sc3nc(C)cc(C)c3c2=O)c1 | 1140 | 
CCOc1ccccc1-c1c2cc(O)c(=O)cc-2oc2cc(O)c(O)cc12 | 930 | 
O=c1[nH]c(=S)n(Cc2ccco2)c(O)c1C=NCc1cccs1 |  | > 30000 nM (inactive)
CN(C)S(=O)(=O)c1cccc(-n2sc3ccccc3c2=O)c1 | 150 | 
O=c1c2ccccc2sn1-c1cc(S(=O)(=O)N2CCOCC2)ccc1N1CCCC1 | 440 | 
O=C(Cc1csc(N2CCOCC2)n1)N/N=C/c1ccc(O)c(O)c1O | 4600 | 
Cc1ccc(NC(=O)Cn2sc3nc(C)cc(C)c3c2=O)c(Cl)c1 | 470 | 
O=c1c2ccccc2sn1-c1ccc(S(=O)(=O)N2CCCC2)cc1 | 950 | 
Cc1cc(C)c2c(=O)n(CC(=O)Nc3ccc(Cl)cc3)sc2n1 | 1450 | 
CC1(C)OC(=O)C(=Cc2ccc(-c3ccc(S(N)(=O)=O)cc3)o2)C(=O)O1 | 2870 | 
O=C1CCCC2=C1C(c1cccs1)n1ncnc1N2 (configuration not stated) |  | > 30000 nM (inactive)
O=C(COc1ccccc1C(=O)N/N=C\c1ccc(O)c(O)c1)N/N=C/c1ccc(O)c(O)c1 | 3980 | 
CCC(=O)NC1=C(Cl)C(=O)C(NC(=O)CC)=C(Cl)C1=O | 760 | 
CCCCn1c(-c2csc(C(C)C)c2)n[nH]c1=S | 10700 | 
NS(=O)(=O)c1ccc(N/N=C/c2ccc(O)c(O)c2O)c([N+](=O)[O-])c1 | 630 | 680 nM
O=C1C(Cl)=C(N2CCCCC2)C(=O)C(Cl)=C1c1cnc(N2CCCCC2)s1 | 630 | 
CC(NC(=O)c1sc2cc([N+](=O)[O-])ccc2c1Cl)C(C)(C)C (configuration not stated) | 960 | 
NS(=O)(=O)c1ccc(CNC(=O)/C=C/c2ccco2)cc1 | 10600 | 

Structure (SMILES) | Ki [nM] | EC50
C/C(=N/NC(=O)c1cc(O)c(O)c(O)c1)c1ccc([N+](=O)[O-])cc1 | 18700 | 
CCC(=O)NC(c1ccc(C)cc1)c1cc([N+](=O)[O-])c2cccnc2c1O (configuration not stated) | 2070 | 
O=c1c2ccccc2sn1-c1cc(S(=O)(=O)N2CCOCC2)ccc1N1CCOCC1 | 110 | 
CC(=O)OCCCNc1cc(Sc2nc3ccccc3s2)c2nonc2c1[N+](=O)[O-] | 920 | 
CN=c1scc(C)n1/N=C/c1ccc(O)c(O)c1O | 2640 | 
CCN=c1scc(C)n1/N=C/c1ccc(O)c(O)c1O | 4330 | 
O=C(O[C@@H]1OC2COC(=O)c3cc(O)c(O)c(O)c3-c3c(cc(O)c(O)c3O)C(=O)O[C@@H]([C@H]1O)[C@@H]2O)c1cc(O)c(O)c(O)c1 | 2980 | 
O=c1c2ccccc2sn1-c1ccccc1 | 300 | 
CCN1/C(=C/C(C)=C/c2sc3ccccc3[n+]2CC)Sc2ccccc21 | 5740 | 
CCOC(=O)/C(C(=O)Nc1ccccc1Cl)=C1/NC(C)(C)Cc2ccccc21 |  | > 30000 nM (inactive)
O=C1CCC(=O)N(O)CCCCCNC(=O)CCC(=O)N(O)CCCCCNC(=O)CCC(=O)N(O)CCCCCN1 | 1930 | 
Cc1ccccc1-n1sc2cc(F)ccc2c1=O | 430 | 
CCCNC(=O)Cn1sc2nc(C)cc(C)c2c1=O | 930 | 
CCc1c(C(=O)Nc2ccccc2)c(C)[nH]c(=S)c1C#N | 10500 | 
CC(C)Sc1nc2ccc(N3C(=O)C4CCCCC4C3=O)cc2s1 (configuration not stated) |  | > 30000 nM (inactive)
O=C(NCCCN1CCOCC1)c1sc2cc([N+](=O)[O-])ccc2c1Cl | 2050 | 
COC(=O)c1c(-c2ccc(C(C)(C)C)cc2)csc1NC(=O)C1C2CCC(O2)C1C(=O)O (configuration not stated) | 7550 | 
COC(=O)CCC(=O)Nc1sc(C)c(C)c1C(N)=O | 4090 | 
CCOC(=O)C1=C(C)NC(C)=C(C(=O)OCCNC(=O)c2cccnc2)C1c1cccc([N+](=O)[O-])c1 (configuration not stated) |  | > 30000 nM (inactive)
Cc1cccc(N2CCN(C(=O)Cn3sc4nc(C)cc(C)c4c3=O)CC2C)c1 (configuration not stated) | 1270 | 
